Starred links: 1 amine or outer side, 2 acyl side, 3 side chain; linkers in the order of their positions; H or OH if unused. Positions of bridges follow the written chain, without caps; N, C: chain ends. Non-standard residues stand in square brackets, D forms with d. Residues, ends and D or L forms follow the SMILES beside them. *: point of attachment. Gly(N-(CH2)3N-pyrrolidone) = O=C(O)CNCCCN1CCCC1=O; Phe(4-amidino) = N=C(N)c1ccc(C[C@H](N)C(=O)O)cc1; Dihydroorotyl(S) = O=C1C[C@@H](C(=O)*)NC(=O)N1; Phe(2,4-Cl2) = N[C@@H](Cc1ccc(Cl)cc1Cl)C(=O)O; Phe(3-Cl) = N[C@@H](Cc1cccc(Cl)c1)C(=O)O; Phe(4-F) = N[C@@H](Cc1ccc(F)cc1)C(=O)O; dPhe(2-Me) = Cc1ccccc1C[C@@H](N)C(=O)O; 1Nal = N[C@@H](Cc1cccc2ccccc12)C(=O)O; 2Nal = N[C@@H](Cc1ccc2ccccc2c1)C(=O)O; Bta = N[C@@H](Cc1csc2ccccc12)C(=O)O; Hyp = O=C(O)[C@@H]1C[C@@H](O)CN1; NMeF = CN[C@@H](Cc1ccccc1)C(=O)O; d(hLeu) = CC(C)CC[C@@H](N)C(=O)O; Tic = O=C(O)[C@@H]1Cc2ccccc2CN1; 2Thi = N[C@@H](Cc1cccs1)C(=O)O; Cit = NC(=O)NCCC[C@H](N)C(=O)O; dCha = N[C@H](CC1CCCCC1)C(=O)O; NHCH2CH(OH)CH2OH = OCC(O)CN*; hLeu = CC(C)CC[C@H](N)C(=O)O; Nle = CCCC[C@H](N)C(=O)O; Orn = NCCC[C@H](N)C(=O)O; Aze = O=C(O)[C@@H]1CCN1; CO = O=C([*:1])[*:2]; Acm = CC(=O)NC*; tBu = CC(C)(C)*
Biological target: T1, human C5aR(CD88) (Homo sapiens, UniProt P21730)
T1 construct: expressed in transfected cells; host or cells: rat basophilic leukemia cells (RBL)
T1 sequence (P21730 1-350): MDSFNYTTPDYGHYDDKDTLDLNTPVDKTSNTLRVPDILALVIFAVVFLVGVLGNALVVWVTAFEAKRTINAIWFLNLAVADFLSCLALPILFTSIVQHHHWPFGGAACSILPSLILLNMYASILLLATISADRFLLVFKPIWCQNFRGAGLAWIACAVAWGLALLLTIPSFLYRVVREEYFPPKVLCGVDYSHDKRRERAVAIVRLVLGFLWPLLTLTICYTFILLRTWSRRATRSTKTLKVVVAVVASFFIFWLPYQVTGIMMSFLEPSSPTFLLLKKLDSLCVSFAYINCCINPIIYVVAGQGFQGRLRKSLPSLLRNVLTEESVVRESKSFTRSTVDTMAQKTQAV
Test: Determination of the IC50 value in an enzyme release assay (functional assay, antagonistic activity)
Format: cell-based
Conditions: for IC50: antagonistic activity, IC50 group in enzyme release assay, RBL cells expressing human C5aR(CD88), read-out: activity (group); for inhibitory activity (in words): functional assay of example 11, noteworthy = IC50 less than 200 nM

| IC50 [nM] | Structure (SMILES) | further results |
| --- | --- | --- |
| 50 to 200 | CCCC[C@@H]1NC(=O)[C@H](Cc2c[nH]c3ccccc23)NC(=O)[C@@H](CC2CCCCC2)NC(=O)[C@@H]2CCCN2C(=O)[C@@H](NC(=O)[C@H](Cc2ccccc2)NC(=O)CON=C[C@H](O)[C@@H](O)[C@H](O)[C@H](O)CO)CCCNC1=O [Compound 333, Fck-[Phe-Orn-Pro-cha-Trp-Nle]] | – |
| 50 to 200 | CC(C)CC[C@H]1NC(=O)[C@H](CO)NC(=O)[C@@H](NC(=O)[C@@H](N)Cc2ccccc2)CCCNC(=O)[C@H](CC(C)C)NC(=O)[C@H](Cc2cccc(Cl)c2)NC1=O [Compound 385, H-Phe-[Orn-Ser-hle-Mcf-Leu]] (H-F[Orn]S[d(hLeu)][Phe(3-Cl)]L; lactam 2-C) | – |
| 200 to 2000 | CC(=O)NCSC[C@H](NC(=O)[C@H](Cc1ccccc1)NC(C)=O)C(=O)N1CCC[C@H]1C(=O)N[C@H](CC1CCCCC1)C(=O)N[C@@H](Cc1csc2ccccc12)C(=O)N[C@@H](Cc1ccccc1)C(N)=O [Compound 123, Ac-Phe-Cys(Acm)-Pro-cha-Bta-Phe-NH2] (Ac-FC(Acm)P[dCha][Bta]F-NH2) | – |
| 20 to 50 | CC(=O)N[C@@H](Cc1ccccc1)C(=O)N[C@H]1CCCNC(=O)[C@H](Cc2cccs2)NC(=O)[C@H](Cc2c[nH]c3ccccc23)NC(=O)[C@@H](CC2CCCCC2)NC(=O)[C@@H]2CCCN2C1=O [Compound 38, Ac-Phe-[Orn-Pro-cha-Trp-Thi]] (Ac-F[Orn]P[dCha]W[2Thi]; lactam 2-C) | inhibitory activity (in words): without significant loss of activity; inhibitory activity (in words) (listed as Ac-Phe-[Orn-Pro-cha-Trp-Thi]): noteworthy inhibitory activity |
| 50 to 200 | CC(=O)N[C@@H](Cc1ccccc1)C(=O)N[C@@H](CCCN)C(=O)N(CCCN1CCCC1=O)CC(=O)N[C@H](CC1CCCCC1)C(=O)N[C@@H](Cc1csc2ccccc12)C(=O)N[C@@H](Cc1ccccc1)C(N)=O [Compound 241, Ac-Phe-Orn-G30-cha-Bta-Phe-NH2] (Ac-F[Orn][Gly(N-(CH2)3N-pyrrolidone)][dCha][Bta]F-NH2) | – |
| 20 to 50 | CC(=O)N[C@@H](Cc1ccccc1)C(=O)N[C@H]1CCCNC(=O)[C@H](Cc2ccc(O)cc2)NC(=O)[C@H](Cc2c[nH]c3ccccc23)NC(=O)[C@@H](CC2CCCCC2)NC(=O)[C@@H]2CCCN2C1=O [Compound 146, Ac-Phe-[Orn-Pro-cha-Trp-Tyr]] (Ac-F[Orn]P[dCha]WY; lactam 2-C) | – |
| 50 to 200 | CN[C@@H](Cc1ccccc1)C(=O)N[C@@H](CCCN)C(=O)N1CCC[C@H]1C(=O)N[C@H](CC1CCCCC1)C(=O)N[C@@H](Cc1c[nH]c2ccccc12)C(=O)N[C@@H](Cc1ccccc1)C(N)=O [Compound 75, H—Me-Phe-Orn-Pro-cha-Trp-Phe-NH2] (H-[NMeF][Orn]P[dCha]WF-NH2) | – |
| 200 to 2000 | CC(=O)N[C@@H](Cc1ccccc1)C(=O)N[C@H]1CCCNC(=O)[C@H](Cc2ccc(C(=N)N)cc2)NC(=O)[C@H](Cc2c[nH]c3ccccc23)NC(=O)[C@@H](CC2CCCCC2)NC(=O)[C@@H]2CCCN2C1=O [compound 21] (Ac-F[Orn]P[dCha]W[Phe(4-amidino)]; lactam 2-C) | – |
| 50 to 200 | CC(=O)N[C@@H](Cc1ccc(F)cc1)C(=O)N[C@@H](CCCN)C(=O)N1CCC[C@H]1C(=O)N[C@H](CCC(C)C)C(=O)N[C@@H](Cc1cccc(Cl)c1)C(=O)N[C@@H](Cc1ccc(F)cc1)C(N)=O [Compound 171, Ac-Pff-Orn-Pro-hle-Mcf-Pff-NH2] (Ac-[Phe(4-F)][Orn]P[d(hLeu)][Phe(3-Cl)][Phe(4-F)]-NH2) | – |
| 50 to 200 | CC(=O)N[C@@H](CO)C(=O)N[C@@H](Cc1ccccc1)C(=O)N[C@@H](CCCN)C(=O)N1CC[C@H]1C(=O)N[C@H](CC1CCCCC1)C(=O)N[C@@H](Cc1csc2ccccc12)C(=O)N[C@@H](Cc1ccccc1)C(N)=O [Compound 139, Ac-Ser-Phe-Orn-Aze-cha-Bta-Phe-NH2] (Ac-SF[Orn][Aze][dCha][Bta]F-NH2) | – |
| > 2000 | CC(=O)N[C@@H](Cc1ccccc1)C(=O)N[C@H]1CCCNC(=O)[C@H](CCCN=C(N)N)NC(=O)[C@H](C)NC(=O)[C@@H](CC2CCCCC2)NC(=O)[C@@H]2CCCN2C1=O [compound 48] (Ac-F[Orn]P[dCha]AR; lactam 2-C) | – |
| 50 to 200 | CC(C)CC[C@@H](NC(=O)[C@@H]1CCCN1C(=O)[C@H](CCCNC(N)=O)NC(=O)[C@H](Cc1ccccc1)NC(=O)[C@@H]1CC(=O)NC(=O)N1)C(=O)N[C@@H](Cc1ccc(F)cc1)C(=O)N[C@@H](Cc1ccccc1)C(N)=O [Compound 348, Hoo-Phe-Cit-Pro-hle-Pff-Phe-NH2] ({Dihydroorotyl(S)}-F[Cit]P[d(hLeu)][Phe(4-F)]F-NH2) | – |

Further lines, the compound ahead of its results:

| Structure (SMILES) | IC50 [nM] | further results |
| --- | --- | --- |
| CC(=O)N[C@@H](Cc1ccccc1)C(=O)N[C@H]1CCCNC(=O)[C@H](CCC(C)C)NC(=O)[C@H](Cc2c[nH]c3ccccc23)NC(=O)[C@@H](CC2CCCCC2)NC(=O)[C@@H]2CCCN2C1=O [Compound 32, Ac-Phe-[Orn-Pro-cha-Trp-Hle]] (Ac-F[Orn]P[dCha]W[hLeu]; lactam 2-C) | 20 to 50 | inhibitory activity (in words): without significant loss of activity; inhibitory activity (in words) (listed as Ac-Phe-[Orn-Pro-cha-Trp-Hle]): noteworthy inhibitory activity |
| CC(=O)N[C@@H](Cc1ccccc1)C(=O)N[C@@H](CCCN)C(=O)N1CCC[C@H]1C(=O)N[C@H](CCC(C)C)C(=O)N[C@@H](Cc1csc2ccccc12)C(=O)N[C@@H](Cc1cccc2ccccc12)C(N)=O [Compound 270, Ac-Phe-Orn-Pro-hle-Bta-1Ni—NH2] (Ac-F[Orn]P[d(hLeu)][Bta][1Nal]-NH2) | 50 to 200 | – |
| CCCC[C@@H]1NC(=O)[C@H](Cc2c[nH]c3ccccc23)NC(=O)[C@@H](CC2CCCCC2)NC(=O)[C@@H]2Cc3ccccc3CN2C(=O)[C@@H](NC(=O)[C@H](Cc2ccccc2)NC(C)=O)CCCNC1=O [Compound 205, Ac-Phe-[Orn-Tic-cha-Trp-Nle]] (Ac-F[Orn][Tic][dCha]W[Nle]; lactam 2-C) | 50 to 200 | – |
| CC(=O)N[C@@H](Cc1ccccc1)C(=O)N[C@H]1CCCNC(=O)[C@H](Cc2ccc3ccccc3c2)NC(=O)[C@H](Cc2c[nH]c3ccccc23)NC(=O)[C@@H](CC2CCCCC2)NC(=O)[C@@H]2CCCN2C1=O [Compound 37, Ac-Phe-[Orn-Pro-cha-Trp-2Ni]] (Ac-F[Orn]P[dCha]W[2Nal]; lactam 2-C) | 50 to 200 | inhibitory activity (in words): without significant loss of activity; inhibitory activity (in words) (listed as Ac-Phe-[Orn-Pro-cha-Trp-2Ni]): noteworthy inhibitory activity |
| CC(=O)N[C@@H](Cc1ccccc1)C(=O)N[C@@H](CCCN)C(=O)N1CCC[C@H]1C(=O)N[C@H](CCC(C)C)C(=O)N[C@@H](Cc1ccc(Cl)cc1Cl)C(=O)N[C@@H](Cc1ccccc1)C(N)=O [Compound 286, Ac-Phe-Orn-Pro-hle-Egy-Phe-NH2] (Ac-F[Orn]P[d(hLeu)][Phe(2,4-Cl2)]F-NH2) | 50 to 200 | – |
| O=C(NCC(O)CO)N[C@@H](Cc1ccccc1)C(=O)N[C@H]1CCCNC(=O)[C@H](Cc2ccccc2)NC(=O)[C@H](Cc2c[nH]c3ccccc23)NC(=O)[C@@H](CC2CCCCC2)NC(=O)[C@@H]2C[C@@H](O)CN2C1=O (stereo partly drawn) [Compound 336, Fhb-[Phe-Orn-Hyp-cha-Trp-Phe]] ({NHCH2CH(OH)CH2OH-CO}-F[Orn][Hyp][dCha]WF; lactam 2-C) | 50 to 200 | – |
| CCCC[C@@H]1NC(=O)[C@H](Cc2cccc(Cl)c2)NC(=O)[C@@H](CCC(C)C)NC(=O)[C@@H]2C[C@@H](OC)CN2C(=O)[C@@H](NC(=O)[C@@H](N)Cc2ccccc2)CCCNC1=O [Compound 354, H-Phe-[Orn-Hym-hle-Mcf-Nle]] (H-F[Orn][Hyp](Me)[d(hLeu)][Phe(3-Cl)][Nle]; lactam 2-C) | 50 to 200 | – |
| CCCC[C@@H]1NC(=O)[C@H](Cc2ccc(F)cc2)NC(=O)[C@@H](CSC(C)(C)C)NC(=O)[C@@H]2C[C@@H](O)CN2C(=O)[C@@H](NC(=O)[C@@H](N)Cc2ccccc2)CCCNC1=O [Compound 358, H-Phe-[Orn-Hyp-ctb-Pff-Nle]] (H-F[Orn][Hyp][dC](tBu)[Phe(4-F)][Nle]; lactam 2-C) | 50 to 200 | – |
| CC(=O)NCCC[C@H](NC(=O)[C@H](Cc1ccccc1)NC(C)=O)C(=O)N1CCC[C@H]1C(=O)N[C@H](CC1CCCCC1)C(=O)N[C@@H](Cc1csc2ccccc12)C(=O)N[C@@H](Cc1ccccc1)C(N)=O [Compound 232, Ac-Phe-OrA-Pro-cha-Bta-Phe-NH2] (Ac-F[Orn](Ac)P[dCha][Bta]F-NH2) | 50 to 200 | – |
| N[C@@H](Cc1ccccc1)C(=O)N[C@H]1CCCNC(=O)[C@H](Cc2ccccc2)NC(=O)[C@H](Cc2ccc(F)cc2)NC(=O)[C@@H](CC2CCCCC2)NC(=O)[C@@H]2CCCN2C1=O [Compound 375, H-Phe-[Orn-Pro-cha-Pff-Phe]] (H-F[Orn]P[dCha][Phe(4-F)]F; lactam 2-C) | 50 to 200 | – |
| CC(=O)N[C@@H](Cc1ccccc1)C(=O)N[C@@H](CCCN)C(=O)N1CCC[C@H]1C(=O)N[C@H](CC1CCCCC1)C(=O)N[C@@H](Cc1csc2ccccc12)C(=O)N[C@@H](Cc1cccc(Cl)c1)C(N)=O [Compound 254, Ac-Phe-Orn-Pro-cha-Bta-Mcf-NH2] (Ac-F[Orn]P[dCha][Bta][Phe(3-Cl)]-NH2) | 50 to 200 | – |
| CC(=O)N[C@@H](Cc1ccccc1)C(=O)N[C@@H](CCCN)C(=O)N1CCC[C@H]1C(=O)N[C@H](Cc1ccccc1C)C(=O)N[C@@H](Cc1csc2ccccc12)C(=O)N[C@@H](Cc1ccccc1)C(N)=O [Compound 308, Ac-Phe-Orn-Pro-omf-Bta-Phe-NH2] (Ac-F[Orn]P[dPhe(2-Me)][Bta]F-NH2) | 50 to 200 | – |
